Data from the supplement of paper PMC10307832.

How the values were obtained:
Assay in all cases: relative viability (nuclei count vs DMSO), 5 days (fraction); higher = more cells survive
Everolimus + Pictilisib = compound: CO[C@H]1C[C@@H]2CC[C@@H](C)[C@@](O)(O2)C(=O)C(=O)N2CCCC[C@H]2C(=O)O[C@H]([C@H](C)C[C@@H]2CC[C@@H](OCCO)[C@H](OC)C2)CC(=O)[C@H](C)/C=C(\C)[C@@H](O)[C@@H](OC)C(=O)[C@H](C)C[C@H](C)/C=C/C=C/C=C/1C [Everolimus] + CS(=O)(=O)N1CCN(Cc2cc3nc(-c4cccc5[nH]ncc45)nc(N4CCOCC4)c3s2)CC1 [Pictilisib] (partner 1 µM)
How it was run: (§1)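 Relative viability is defined as nuclei in treated wells over nuclei in vehicle wells. Duplicate plates were run and medians reported. Lung cancer cell lines in 1536-well plates were dosed by pin tool one day after seeding, with one drug or with a fixed anchor-drug dose plus five library-drug doses (not always all listed) in √10 steps, and nuclei were counted after 5 days.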

Everolimus + Alpelisib = compound: CO[C@H]1C[C@@H]2CC[C@@H](C)[C@@](O)(O2)C(=O)C(=O)N2CCCC[C@H]2C(=O)O[C@H]([C@H](C)C[C@@H]2CC[C@@H](OCCO)[C@H](OC)C2)CC(=O)[C@H](C)/C=C(\C)[C@@H](O)[C@@H](OC)C(=O)[C@H](C)C[C@H](C)/C=C/C=C/C=C/1C [Everolimus] + Cc1nc(NC(=O)N2CCC[C@H]2C(N)=O)sc1-c1ccnc(C(C)(C)C(F)(F)F)c1 [Alpelisib] (partner 2 µM)
How it was run: as §1

Everolimus + Phenformin = compound: CO[C@H]1C[C@@H]2CC[C@@H](C)[C@@](O)(O2)C(=O)C(=O)N2CCCC[C@H]2C(=O)O[C@H]([C@H](C)C[C@@H]2CC[C@@H](OCCO)[C@H](OC)C2)CC(=O)[C@H](C)/C=C(\C)[C@@H](O)[C@@H](OC)C(=O)[C@H](C)C[C@H](C)/C=C/C=C/C=C/1C [Everolimus] + N=C(N)NC(=N)NCCc1ccccc1 [Phenformin] (partner 250 µM)
How it was run: as §1

Everolimus + AZD7762 = compound: CO[C@H]1C[C@@H]2CC[C@@H](C)[C@@](O)(O2)C(=O)C(=O)N2CCCC[C@H]2C(=O)O[C@H]([C@H](C)C[C@@H]2CC[C@@H](OCCO)[C@H](OC)C2)CC(=O)[C@H](C)/C=C(\C)[C@@H](O)[C@@H](OC)C(=O)[C@H](C)C[C@H](C)/C=C/C=C/C=C/1C [Everolimus] + NC(=O)Nc1cc(-c2cccc(F)c2)sc1C(=O)N[C@H]1CCCNC1 [AZD7762] (partner 0.2 µM)
How it was run: as §1

Row | Cell Line | relative viability (Everolimus + Pictilisib; first compound 0.01 µM) | relative viability (Everolimus + Pictilisib; first compound 0.03162 µM) | relative viability (Everolimus + Pictilisib; first compound 0.1 µM) | relative viability (Everolimus + Pictilisib; first compound 0.3162 µM) | relative viability (Everolimus + Pictilisib; first compound 1 µM) | relative viability (Everolimus + Alpelisib; first compound 0.01 µM) | relative viability (Everolimus + Alpelisib; first compound 0.03162 µM) | relative viability (Everolimus + Alpelisib; first compound 0.1 µM) | relative viability (Everolimus + Alpelisib; first compound 0.3162 µM) | relative viability (Everolimus + Alpelisib; first compound 1 µM) | relative viability (Everolimus + Phenformin; first compound 0.01 µM) | relative viability (Everolimus + Phenformin; first compound 0.03162 µM) | relative viability (Everolimus + Phenformin; first compound 0.3162 µM) | relative viability (Everolimus + Phenformin; first compound 1 µM) | relative viability (Everolimus + AZD7762; first compound 0.01 µM) | relative viability (Everolimus + AZD7762; first compound 0.03162 µM) | relative viability (Everolimus + AZD7762; first compound 0.1 µM) | relative viability (Everolimus + AZD7762; first compound 0.3162 µM) | relative viability (Everolimus + AZD7762; first compound 1 µM) | relative viability (Everolimus + Phenformin; first compound 0.1 µM)
1 | NCI-H727 | 0.268 | 0.274 | 0.309 | 0.239 | 0.275 | 0.399 | 0.328 | 0.266 | 0.308 | 0.364 | 0.462 | 0.457 | 0.485 | 0.368 | 0.482 | 0.483 | 0.454 | 0.565 | 0.523 | 
2 | NCI-H838 | 0.222 | 0.219 | 0.247 | 0.208 | 0.262 | 0.392 | 0.385 | 0.382 | 0.343 | 0.347 | 0.331 | 0.355 | 0.313 | 0.363 | 0.767 | 0.777 | 0.75 | 0.831 | 0.763 | 0.267
3 | NCI-H1355 | 0.251 | 0.238 | 0.181 | 0.265 | 0.275 | 0.415 | 0.277 | 0.309 | 0.327 | 0.321 | 0.394 | 0.364 | 0.332 | 0.345 | 0.552 | 0.468 | 0.456 | 0.471 | 0.376 | 0.335
4 | NCI-H1395 | 0.571 | 0.548 | 0.508 | 0.5 | 0.496 | 0.787 | 0.813 | 0.722 | 0.759 | 1.08 | 0.386 | 0.398 | 0.401 | 0.371 | 0.394 | 0.374 | 0.335 | 0.405 | 0.339 | 0.425
5 | NCI-H1437 | 0.159 | 0.149 | 0.135 | 0.165 | 0.18 | 0.566 | 0.438 | 0.549 | 0.507 | 0.294 | 0.557 | 0.282 | 0.299 | 0.29 | 1.1 | 1.11 | 1.1 | 0.997 | 0.875 | 0.293
6 | NCI-H1651 | 0.368 | 0.324 | 0.352 | 0.427 | 0.39 | 0.639 | 0.454 | 0.611 | 0.537 | 0.451 | 0.284 | 0.297 | 0.265 | 0.4 | 0.197 | 0.218 | 0.224 | 0.208 | 0.231 | 0.255
7 | NCI-H1666 | 0.295 | 0.344 | 0.309 | 0.341 | 0.295 | 0.776 | 0.509 | 0.584 | 0.496 | 0.511 | 0.555 | 0.575 | 0.577 | 0.539 | 0.855 | 0.84 | 0.821 | 0.899 | 0.908 | 0.617
